This note sets out measurements from US20120202794A1 (priority 2011, published 2012).

Usually EC90 stands for the point of the concentration-response curve where the effect stands at 90%.

Each structure is given as a SMILES string.

Series [1] has as its system HCV Replicon 1b. Kind of series: HCV inhibition assay, HCV replicon 1b (Clone A or ET-lunet cells; RT-PCR or luciferase reporter). It is filed as cell-based. The conditions noted are these: Hepatitis C virus, 96 h, HCV replicon 1b; 4 days incubation; read-out: Replicon 1b potency EC90. In a few lines: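 Inhibition read either as luciferase signal (ET replicon) or as HCV 5′-NTR RNA by RT-PCR relative to rRNA, % = (1−2^−ΔΔCt)×100, against DMSO controls, giving EC50 and EC90. Cells: Clone A or ET-lunet, seeded 1500 or 3000/well, exposed 4 days at 37 °C, 5% CO2, 0.5% DMSO.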
In general terms: Replicon systems follow genome replication, usually without infectious particles.

In series [2] the test system is Huh7, HepG2, BxPC3, or CEM cells. Kind of series: Cell cytotoxicity assay (MTS), CC90 as reported in Table 1, cell line not stated. The class given is cell-based. Particulars: MTS assay; 8 days incubation; cell line not given. Put shortly: (§1)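 MTS read-out (490 nm, 2 h dye step) after 8-day exposure at 37° C. Huh7, HepG2, BxPC3 were seeded at 2×10^3 and CEM at 5×10^3 cells/well, with compound serially diluted from 100 μM. CC90 comes from comparison with untreated control wells.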

The subject of series [3] is genotype (GT) 1a H77 replicon. Kind of series: Replicon assay, H77 GT 1a replicon in Huh7-Lunet cells (RT-PCR). It is filed as cell-based, HCV. Particulars: Hepatitis C virus, GT1A, Huh-7, 96 h, 4 days incubation, read-out: RT-PCR H77 1a Potency EC90. Here is the method:
Cell Line and Maintenance: The genotype (GT) 1a H77 replicon (Apath LLC Brooklyn, N.Y.) was stably expressed in Huh7-Lunet cells (kindly provided by R. Bartenschlager University of Heidelberg, Heidelberg, Germany) and maintained in Dulbecco's modified Eagle's medium supplemented with 10% fetal bovine serum, 0.1 mM non essential amino acids (NEAA), 4 mM L-glutamine, 1 mM sodium pyruvate and 0.750 mg/mL G418 (Geneticin) (Invitrogen, Carlsbad, Calif.).
Replicon Assay: Inhibition of HCV in the H77 GT 1a replicon (Apath LLC, Brooklyn, N.Y.) was measured by Real-Time PCR (RT-PCR) Replicon cells were added to the plate at 1500 cells/well in 50 μL of medium and 50 μL of 2× drug dilutions were added (in duplicate) per well in a 96 well plate to total 100 μL per well. The plate was incubated at 37° C. in a humidified 8% CO2 atmosphere for 4 days. After incubation, the supernatant was discarded and total RNA was extracted with RNeasy 96 (Qiagen, Valencia Calif.) per manufacturer's instructions. The extracted RNA was amplified as described by Stuyver et al., J. Virol. (2003) 77: 10689-10694, and the ΔCt values for HCV were determined and the EC90 was calculated using GraphPad Prism software (San Diego, Calif.). A “no drug” (medium only) control was used to determine maximum amount of HCV RNA.

The nature of series [4]: Cell cytotoxicity assay (MTS), CC90 as reported in Table 1, cell line not stated. It is filed as cell-based. Particulars: human; MTS assay; 8 days incubation; cell line not given. Put shortly: as §1
(Tetrazolium dyes change colour on reduction, which living cells bring about.)

Consider `CC(C)C[C@H]1CN(C(=O)c2cc(-c3ccc([N+](=O)[O-])cc3)on2)[C@@H](CC(C)C)C(=O)N1` [Compound 273, (3S,6S)-3,6-diisobutyl-4-(5-(4-nitrophenyl)isoxazole-3-carbonyl)piperazin-2-one], for which the concentration for an effect of 90% (EC90) in series [1] turned out to be 3.76 µM. The CC90 in series [2] was greater than 10 µM.

Regarding `CC(C)C[C@H]1CN(C(=O)[C@@H]2C[C@H]2c2ccc(F)cc2F)[C@@H](CC(C)C)C(=O)N1` [Compound 298, (3S,6S)-4-[(1R,2R)-2-(2,4-fluoro-phenyl)-cyclopropanecarbonyl]-3,6-diisobutyl-piperazin-2-one], the EC90 in series [1] was 0.23 µM. In series [2], this molecule displayed a CC90 greater than 10 µM.

For `CC(C)C[C@H]1C(=O)N[C@@H](c2ccccc2)CN1C(=O)[C@@H]1C[C@H]1c1ccc(Cl)cc1` [Compound 301, (3S,6S)-4-((1R,2R)-2-(4-chlorophenyl)cyclopropanecarbonyl)-3-isobutyl-6-phenyl-piperazin-2-one], the EC90 in series [1] came out at 0.17 µM. This molecule had a CC90 in series [2] greater than 10 µM.

Turning to `CC(C)C[C@H]1C(=O)N[C@@H](c2ccccc2F)CN1C(=O)c1cc(-c2ccc(F)cc2)on1` [Compound 355, (3S,6S)-6-(2-fluorophenyl)-4-(5-(4-fluorophenyl)isoxazole-3-carbonyl)-3-isobutyl-piperazin-2-one], the EC90 in series [1] is 0.093 µM; in series [3], 0.16 µM. The CC90 at 8 days in series [4] was greater than 10 µM.

Consider `CC(C)C[C@H]1C(=O)N[C@@H](c2ccccc2F)CN1C(=O)c1noc(-c2ccc(F)cc2)n1` [Compound 370, (3S,6S)-6-(2-fluorophenyl)-4-(5-(4-fluorophenyl)-1,2,4-oxadiazole-3-carbonyl)-3-isobutylpiperazin-2-one], for which the concentration for an effect of 90% (EC90) was 0.061 µM in series [1] and 0.099 µM in series [3]. Further, in series [4], the CC90 at 8 days is greater than 10 µM.

`CC(C)C[C@H]1C(=O)N[C@@H](c2ccccc2F)CN1C(=O)[C@@H]1C[C@H]1c1ccc(F)cc1` [Compound 373, (3S,6S)-6-(2-fluorophenyl)-4-((1R,2R)-2-(4-fluorophenyl)cyclopropanecarbonyl)-3-isobutylpiperazin-2-one]: the concentration for an effect of 90% (EC90) in series [1] came to 0.057 µM; in series [3] it was 0.087 µM. The CC90 at 8 days in series [4] was greater than 10 µM.

Turning to `C/C=C/[C@H]1CN(C(=O)c2cc(-c3ccc(F)cc3)on2)[C@@H](CC(C)C)C(=O)N1` [Compound 424, (3S,6S)-4-(5-(4-fluorophenyl)isoxazole-3-carbonyl)-3-isobutyl-6-((E)-prop-1-en-1-yl)piperazin-2-one], the concentration for an effect of 90% (EC90) is 0.064 µM in series [1] and 0.082 µM in series [3]. In series [4], this molecule had a CC90 at 8 days greater than 10 µM.

Turning to `CC(C)C[C@H]1C(=O)N[C@@H](c2cccs2)CN1C(=O)c1cc(-c2ccc(F)cc2)on1` [Compound 426, (3S,6R)-4-(5-(4-fluorophenyl)isoxazole-3-carbonyl)-3-isobutyl-6-(thiophen-2-yl)piperazin-2-one], the EC90 in series [1] amounted to 0.018 µM; in series [3] it was 0.048 µM. In series [4], this molecule yielded a CC90 at 8 days greater than 10 µM.

Turning to `CC(C)C[C@H]1C(=O)N[C@@H](c2cccs2)CN1C(=O)c1noc(-c2ccc(F)cc2)n1` [Compound 430, (3S,6R)-4-(5-(4-fluorophenyl)-1,2,4-oxadiazole-3-carbonyl)-3-isobutyl-6-(thiophen-2-yl)piperazin-2-one], the 90% effect concentration (EC90) was found to be 0.0026 µM in series [1] and 0.018 µM in series [3]. The molecule also showed a CC90 at 8 days in series [4] greater than 10 µM.

For `CC(C)C[C@H]1C(=O)N[C@@H](c2cccs2)CN1C(=O)c1cc(-c2ccc(F)cc2)no1` [Compound 432, (3S,6R)-4-(3-(4-fluorophenyl)isoxazole-5-carbonyl)-3-isobutyl-6-(thiophen-2-yl)piperazin-2-one], the 90% effect concentration (EC90) was determined as 0.02 µM in series [1] and 0.022 µM in series [3]. The molecule also displayed a CC90 at 8 days in series [4] greater than 10 µM.

Regarding `CC(C)C[C@H]1C(=O)N[C@@H](c2cccs2)CN1C(=O)[C@@H]1C[C@H]1c1ccc(F)cc1` [Compound 433, (3S,6R)-4-((1R,2R)-2-(4-fluorophenyl)cyclopropanecarbonyl)-3-isobutyl-6-(thiophen-2-yl)piperazin-2-one], the EC90 in series [1] turned out to be 0.018 µM; in series [3], 0.03 µM. This molecule also gave a CC90 at 8 days in series [4] greater than 10 µM.

`CC(C)C[C@H]1C(=O)N[C@@H](c2ccsc2)CN1C(=O)c1cc(-c2ccc(F)cc2)on1` [Compound 436, (3S,6S)-4-(5-(4-fluorophenyl)isoxazole-3-carbonyl)-3-isobutyl-6-(thiophen-3-yl)piperazin-2-one]: the EC90 in series [1] worked out at 0.018 µM; in series [3] it was 0.038 µM. The molecule further returned a CC90 at 8 days in series [4] greater than 10 µM.

As for `CC(C)C[C@H]1C(=O)N[C@@H](c2ccsc2)CN1C(=O)[C@@H]1C[C@H]1c1ccc(F)cc1` [Compound 445, (3S,6S)-4-((1R,2R)-2-(4-fluorophenyl)cyclopropanecarbonyl)-3-isobutyl-6-(thiophen-3-yl)piperazin-2-one], the figures for the 90% effect concentration (EC90) in series [1] and in series [3] were 0.027 µM and 0.02 µM, respectively. In series [4], this molecule had a CC90 at 8 days greater than 10 µM.

Turning to `CC(C)C[C@H]1C(=O)N[C@@H](c2ccsc2)CN1C(=O)c1noc(-c2ccc(F)cc2)n1` [Compound 446, (3S,6S)-4-(5-(4-fluorophenyl)-1,2,4-oxadiazole-3-carbonyl)-3-isobutyl-6-(thiophen-3-yl)piperazin-2-one], the figures for the EC90 in series [1] and in series [3] were 0.014 µM and 0.028 µM, respectively. The molecule also returned a CC90 at 8 days in series [4] greater than 10 µM.

Take `CC(C)C[C@H]1C(=O)N[C@@H](c2ccsc2Cl)CN1C(=O)c1cc(-c2ccc(F)cc2)on1` [Compound 496, (3S,6S)-6-(2-chlorothiophen-3-yl)-4-(5-(4-fluorophenyl)isoxazole-3-carbonyl)-3-isobutylpiperazin-2-one]: the concentration for an effect of 90% (EC90) turned out to be 0.011 µM in series [1] and 0.065 µM in series [3]. In series [4], this molecule gave a CC90 at 8 days greater than 10 µM.

Turning to `CC(C)C[C@H]1C(=O)N[C@@H](c2ccsc2Cl)CN1C(=O)c1noc(-c2ccc(F)cc2)n1` [Compound 499, (3S,6S)-6-(2-chlorothiophen-3-yl)-4-(5-(4-fluorophenyl)-1,2,4-oxadiazole-3-carbonyl)-3-isobutylpiperazin-2-one], the 90% effect concentration (EC90) in series [1] stood at 0.023 µM; in series [3], 0.083 µM. In addition, the CC90 at 8 days in series [4] is greater than 10 µM.

On to `CC(C)C[C@H]1C(=O)N[C@@H](c2cnco2)CN1C(=O)[C@@H]1C[C@H]1c1ccc(F)cc1` [Compound 521, (3S,6R)-4-((1R,2R)-2-(4-fluorophenyl)cyclopropanecarbonyl)-3-isobutyl-6-(oxazol-5-yl)piperazin-2-one], for which the EC90 in series [1] is 0.022 µM; in series [3], 0.004 µM. The molecule further showed a CC90 at 8 days in series [4] greater than 10 µM.
